Source: article PMC8486872, “A rational blueprint for the design of chemically-controlled protein switches” (Nature Communications, 2021)
Where “and” joins values, the source holds several entries; their conditions need not be identical. Equal entries are not always repeated.

Assays:
[1] = tested on: JAK/STAT pathway SEAP expression in HEK293T cells; assay: AIR-GEMS ON-switch SEAP assay; details: Homo sapiens, HEK-293T, read-out: EC50, AIR-2-GEMS activation by Drug-2
Description: We fused the AIR components in the ectodomains of the GEMS and measured SEAP activity as a reporter for drug-triggered activation.
HEK293T cells were maintained in DMEM medium with 10% FBS (Gibco) and Pen/Strep (Thermo Fisher). Cells were maintained and split every two days at around 80% confluence. HEK293T cells were seeded 24 h before transfection, and transfected with the lipofectamine 3000 kit (Thermo Fisher). Plasmids were cotransfected according to the Table S7. For the drug OFF-switch experiments, drugs were added 12 h post transfection and incubated with cells for 24 h before the SEAP detection assay.
Representative data of cellular assays are presented as individual values and mean values (bars). n = 3 refers to biological replicates. All IC50/EC50 values of cellular assays (CDH-TF, CDH-GEMS, AIR-TF and AIR-GEMS) reported were calculated using four-parameter nonlinear regression ± s.d.
Bcl2 mutants were cloned into the AIR-GEMS

[2] = tested on: SEAP and Luciferase expression in HEK293T cells; assay: SIMO designer cells (AIR-1/2-GEMS + CDH-1/2-TF); assay type: cell-based; set-up: Bottom (best-fit value) / Top (best-fit value) / Span (best-fit value): unit not given here
Excerpt: Fig. 5 Orthogonal chemical switches enable implementation of multi-input multi-output control modes in mammalian cells. a Scheme of multi-inputs multi-outputs (MIMO) designer cells where two drugs control two different outputs. b, c Cells were co-transfected with AIR-1/2-GEMS and CDH-3-TF regulate SEAP and Luciferase expression, respectively. […] AIR-1/2-GEMS coupled with SEAP expression circuits were co-transfected with CDH-1/2-TF circuits which control the Luciferase production. Respective drug concentrations ranged from 0.001 nM to 1 µM. All values presented are mean ± s.d. of three replicates and curves were fitted by four-parameters nonlinear regression. b, c, e, f, h, i Source data are available in the source data file.
Finally, we engineered SIMO cells (Fig. 5g) using two designed switches that produce ON and OFF responses upon exposure to the same drug. We transfected cells with combinations of AIR-GEMS and CDH-TFs which controlled the expression of the reporter proteins SEAP and Luciferase, respectively. […] Therefore, computational design expanded the repertoire of protein switches controlled by the same compounds that can be used to simultaneous turn ON and OFF synergistic outputs. […]
AIR-1-GEMS coupled with SEAP expression circuits (i) and CDH-1-TF circuits which control the Luciferase production (j). j-k) Quantification of SEAP and Luciferase activities under Drug-2. AIR-2-GEMS coupled with SEAP expression circuits (k) and CDH-2-TF circuits which control the Luciferase production (l). b-k) Each data point represents the mean of n = 3 biological replicates, and the dose-dependent curve were fitted using four-parameter nonlinear regression.

[3] = Fig S13j, AIR-2-GEMS control SEAP expression only, Drug-2 3.16 nM
[4] = Fig S13j, AIR-2-GEMS control SEAP expression only, Drug-2 10 nM
[5] = Fig S13j, AIR-2-GEMS control SEAP expression only, Drug-2 100 nM
[6] = Fig S13j, AIR-2-GEMS control SEAP expression only, Drug-2 316 nM
[7] = Fig S13j, AIR-2-GEMS control SEAP expression only, Drug-2 1000 nM
[8] = sheet Figure5i, SEAP, four-parameter fit

Compound: CC1(C)CCC(CN2CCN(c3ccc(C(=O)NS(=O)(=O)c4ccc(NCC5CCOCC5)c([N+](=O)[O-])c4)c(Oc4cnc5[nH]ccc5c4)c3)CC2)=C(c2ccc(Cl)cc2)C1 [Drug-2, Venetoclax]
- EC50 [1]: 0.5 nM
- SEAP and Luciferase outputs in SIMO cells ([2]; 0.001 nM to 1 µM): simultaneously activated SEAP production and suppressed the expression of Luciferase
- SEAP ([2]; Fig5i, turn ON (title: via AIR-1-GEMS), 0.001 nM): 11.0539 U/L and 12.4374 U/L and 11.7528 U/L
- SEAP ([2]; Fig5i, turn ON (title: via AIR-1-GEMS), 0.005 nM): 14.3953 U/L and 10.7601 U/L and 8.34 U/L
- SEAP ([2]; Fig5i, turn ON (title: via AIR-1-GEMS), 0.05 nM): 12.0377 U/L and 10.3343 U/L and 7.481 U/L
- SEAP ([2]; Fig5i, turn ON (title: via AIR-1-GEMS), 0.5 nM): 13.1482 U/L and 9.328 U/L and 7.802 U/L
- SEAP ([2]; Fig5i, turn ON (title: via AIR-1-GEMS), 1 nM): 16.8267 U/L and 13.7148 U/L and 13.9654 U/L
- SEAP ([2]; Fig5i, turn ON (title: via AIR-1-GEMS), 5 nM): 12.4083 U/L and 18.0777 U/L and 19.7017 U/L
- SEAP ([2]; Fig5i, turn ON (title: via AIR-1-GEMS), 10 nM): 32.3034 U/L and 32.696 U/L and 36.5671 U/L
- SEAP ([2]; Fig5i, turn ON (title: via AIR-1-GEMS), 50 nM): 48.8555 U/L
- SEAP ([2]; Fig5i, turn ON (title: via AIR-1-GEMS), 100 nM): 61.1746 U/L and 72.5404 U/L
- SEAP ([2]; Fig5i, turn ON (title: via AIR-1-GEMS), 500 nM): 94.0018 U/L and 86.0577 U/L
- SEAP ([2]; Fig5i, turn ON (title: via AIR-1-GEMS), 1000 nM): 105.374 U/L and 86.4725 U/L
- SEAP ([2]; Fig S13j, AIR-2-GEMS control SEAP expression only, Drug-2 0.01 nM): 269 U/L and 225 U/L and 167 U/L
- SEAP ([2]; Fig S13j, AIR-2-GEMS control SEAP expression only, Drug-2 1 nM): 225 U/L and 173 U/L and 167 U/L
- Luciferase [2, 3]: 18.3864 RLU and 14.0122 RLU and 11.0547 RLU
- SEAP [2, 3]: 199 U/L and 215 U/L and 123 U/L
- Luciferase [2, 4]: 59.3143 RLU and 64.1927 RLU and 53.9121 RLU
- SEAP [2, 4]: 143 U/L and 145 U/L and 125 U/L
- SEAP ([2]; Fig S13j, AIR-2-GEMS control SEAP expression only, Drug-2 31.6 nM): 149 U/L and 123 U/L
- Luciferase [2, 5]: 277.707 RLU and 262.611 RLU and 223.323 RLU
- SEAP [2, 5]: 157 U/L and 127 U/L and 107 U/L
- Luciferase [2, 6]: 280.311 RLU and 280.175 RLU and 202.801 RLU
- SEAP [2, 6]: 177 U/L and 117 U/L and 123 U/L
- Luciferase [2, 7]: 203.844 RLU and 222.434 RLU and 194.549 RLU
- SEAP [2, 7]: 191 U/L and 169 U/L and 179 U/L
- SEAP ([2]; Fig S13k, CDH-2-TF control Luciferase expression only, Drug-2 0.01 nM): 77283 U/L and 94282 U/L and 94549 U/L
- SEAP ([2]; Fig S13k, CDH-2-TF control Luciferase expression only, Drug-2 0.1 nM): 83949 U/L and 102019 U/L and 91551 U/L
- SEAP ([2]; Fig S13k, CDH-2-TF control Luciferase expression only, Drug-2 1 nM): 97527 U/L and 93132 U/L and 98408 U/L
- SEAP ([2]; Fig S13k, CDH-2-TF control Luciferase expression only, Drug-2 3.16 nM): 96858 U/L and 87221 U/L and 87443 U/L
- SEAP ([2]; Fig S13k, CDH-2-TF control Luciferase expression only, Drug-2 10 nM): 78643 U/L and 87229 U/L and 90599 U/L
- SEAP ([2]; Fig S13k, CDH-2-TF control Luciferase expression only, Drug-2 31.6 nM): 80585 U/L and 86321 U/L and 73406 U/L
- SEAP ([2]; Fig S13k, CDH-2-TF control Luciferase expression only, Drug-2 100 nM): 64234 U/L and 74136 U/L and 75517 U/L
- SEAP ([2]; Fig S13k, CDH-2-TF control Luciferase expression only, Drug-2 316 nM): 47807 U/L and 51555 U/L and 52806 U/L
- SEAP ([2]; Fig S13k, CDH-2-TF control Luciferase expression only, Drug-2 1000 nM): 34743 U/L and 30667 U/L and 26001 U/L
- IC50 ([2]; Homo sapiens, HEK-293T, sheet Figure5i, SEAP column (turn ON), four-parameter fit, given as IC50, read-out: IC50 (best-fit value)): 5.24 nM
- Bottom (best-fit value) [2, 8]: 28.34
- HillSlope (best-fit value) [2, 8]: 1.403
- Span (best-fit value) [2, 8]: 390.7
- Top (best-fit value) [2, 8]: 419
- logIC50 (best-fit value) ([2]; sheet Figure5i, SEAP, four-parameter fit, drug in nM): 0.7193
